Results: ChEMBL document CHEMBL3797086, “Synthesis and biological evaluation of novel structural hybrids of benzofuroxan derivatives and fluoroquinolones” (Eur J Med Chem, 2016)
≈ marks a conversion by molar mass, not a printed value. Each block holds one molecule with its values, some of them ahead of it.

Tests used:
Pseudomonas aeruginosa [1] = assay: microbe, parasite or virus in culture; type: functional; settings: 9027
Escherichia coli [2] = assay: microbe, parasite or virus in culture; type: functional; settings: F-50
Bacillus cereus [3] = assay: microbe, parasite or virus in culture; type: functional; settings: 8035
Staphylococcus aureus [4] = assay: microbe, parasite or virus in culture; type: functional; settings: 209p
Bacillus cereus [5] = assay: microbe, parasite or virus in culture; type: functional; settings: Bacillus cereus, 8035, 4 h
Staphylococcus aureus [6] = assay: microbe, parasite or virus in culture; type: functional; settings: 209p, 4 h
Escherichia coli [7] = assay: microbe, parasite or virus in culture; type: functional; settings: F-50, 4 h
Pseudomonas aeruginosa [8] = assay: microbe, parasite or virus in culture; type: functional; settings: Pseudomonas aeruginosa, 9027, 4 h
Bacillus cereus [9] = assay: Potency index, ratio of lomefloxacin MBC to compound MBC for Bacillus cereus 8035; type: functional
in vitro = settings: human
[10] = red blood cells (RBC), at 0.19 to 3.9 µg/mL

SMILES: CCn1cc(C(=O)O)c(=O)c2cc(F)c(N3CCNC(C)C3)c(F)c21.O=[N+]([O-])c1c(Cl)cc2c(no[n+]2[O-])c1O (stereo not drawn)
MIC (Pseudomonas aeruginosa [1]): 6.3 µg/mL
MIC (Escherichia coli [2]): 3.1 µg/mL
MIC (Bacillus cereus [3]): 0.97 µg/mL
MIC (Staphylococcus aureus [4]): 0.97 µg/mL
MBC (Bacillus cereus [5]): 1.5 µg/mL
MBC (Staphylococcus aureus [6]): 1.9 µg/mL
MBC (Escherichia coli [7]): 12.5 µg/mL
MBC (Pseudomonas aeruginosa [8]): 12.5 µg/mL
Ratio (Bacillus cereus [9]): 8
hemolysis at 1 h (in vitro; [10]): ≤ 1%

SMILES: CC1CN(c2c(F)c(N)c3c(=O)c(C(=O)O)cn(C4CC4)c3c2F)CC(C)N1.O=[N+]([O-])c1c(Cl)cc2c(no[n+]2[O-])c1O (stereo not drawn)
MIC (Pseudomonas aeruginosa [1]): 3.1 µg/mL
MIC (Escherichia coli [2]): 1.5 µg/mL
MIC (Bacillus cereus [3]): 0.19 µg/mL
MIC (Staphylococcus aureus [4]): 0.39 µg/mL
MBC (Bacillus cereus [5]): 1.5 µg/mL
MBC (Staphylococcus aureus [6]): 0.39 µg/mL
MBC (Escherichia coli [7]): 1.5 µg/mL
MBC (Pseudomonas aeruginosa [8]): 6.3 µg/mL
hemolysis at 1 h (in vitro; [10]): ≤ 1%

SMILES: O=C(O)c1cn(C2CC2)c2cc(N3CCNCC3)c(F)cc2c1=O.O=[N+]([O-])c1c(Cl)cc2c(no[n+]2[O-])c1O
MIC (Pseudomonas aeruginosa [1]): 15.6 µg/mL
MIC (Bacillus cereus [3]): 7.8 µg/mL
MIC (Staphylococcus aureus [4]): 3.9 µg/mL
MBC (Bacillus cereus [5]): 62.5 µg/mL
MBC (Staphylococcus aureus [6]): 7.8 µg/mL
MBC (Pseudomonas aeruginosa [8]): 31.3 µg/mL

SMILES: CCn1cc(C(=O)O)c(=O)c2cc(F)c(N3CCNCC3)cc21.O=[N+]([O-])c1c(Cl)cc2c(no[n+]2[O-])c1O
MIC (Pseudomonas aeruginosa [1]): 31.3 µg/mL
MIC (Bacillus cereus [3]): 7.8 µg/mL
MIC (Staphylococcus aureus [4]): 7.8 µg/mL
MBC (Bacillus cereus [5]): 15.6 µg/mL
MBC (Staphylococcus aureus [6]): 31.3 µg/mL
MBC (Escherichia coli [7]): > 500 µg/mL
MBC (Pseudomonas aeruginosa [8]): > 500 µg/mL
hemolysis at 1 h (in vitro; [10]): ≤ 1%

SMILES: O=C(O)c1cn(C2CC2)c2cc(N3CCNCC3)c(F)cc2c1=O [CIPROFLOXACIN]
MIC (Pseudomonas aeruginosa [1]): 0.39 µg/mL (≈ 1.18 µM)
MIC (Bacillus cereus [3]): 0.39 µg/mL (≈ 1.18 µM)
MIC (Staphylococcus aureus [4]): 0.19 µg/mL (≈ 0.573 µM)
MBC (Bacillus cereus [5]): 6.3 µg/mL (≈ 19 µM)
MBC (Staphylococcus aureus [6]): 1.5 µg/mL (≈ 4.53 µM)
MBC (Escherichia coli [7]): 3.1 µg/mL (≈ 9.36 µM)
MBC (Pseudomonas aeruginosa [8]): 3.1 µg/mL (≈ 9.36 µM)
hemolysis at 1 h (in vitro; erythrocyte): ≤ 1%

SMILES: CCn1cc(C(=O)O)c(=O)c2cc(F)c(N3CCNC(C)C3)c(F)c21 (stereo not drawn) [LOMEFLOXACIN]
MIC (Pseudomonas aeruginosa [1]): 6.3 µg/mL (≈ 17.9 µM)
MIC (Escherichia coli [2]): 3.1 µg/mL (≈ 8.82 µM)
MIC (Bacillus cereus [3]): 6.3 µg/mL (≈ 17.9 µM)
MIC (Staphylococcus aureus [4]): 0.78 µg/mL (≈ 2.22 µM)
MBC (Bacillus cereus [5]): 12.5 µg/mL (≈ 35.6 µM)
MBC (Staphylococcus aureus [6]): 3.1 µg/mL (≈ 8.82 µM)
MBC (Escherichia coli [7]): 6.3 µg/mL (≈ 17.9 µM)
MBC (Pseudomonas aeruginosa [8]): 12.5 µg/mL (≈ 35.6 µM)
hemolysis at 1 h (in vitro; [10]): ≤ 1%

SMILES: CCn1cc(C(=O)O)c(=O)c2cc(F)c(N3CCNCC3)cc21 [NORFLOXACIN]
MIC (Pseudomonas aeruginosa [1]): 3.1 µg/mL (≈ 9.71 µM)
MIC (Escherichia coli [2]): 0.19 µg/mL (≈ 0.595 µM)
MIC (Bacillus cereus [3]): 1.5 µg/mL (≈ 4.7 µM)
MIC (Staphylococcus aureus [4]): 0.39 µg/mL (≈ 1.22 µM)
MBC (Bacillus cereus [5]): 3.1 µg/mL (≈ 9.71 µM)
MBC (Staphylococcus aureus [6]): 6.3 µg/mL (≈ 19.7 µM)
MBC (Escherichia coli [7]): 3.1 µg/mL (≈ 9.71 µM)
MBC (Pseudomonas aeruginosa [8]): 25 µg/mL (≈ 78.3 µM)
hemolysis at 1 h (in vitro; [10]): ≤ 1%

MIC (Pseudomonas aeruginosa [1]): 0.78 µg/mL (≈ 1.99 µM)
MIC (Escherichia coli [2]): 0.19 µg/mL (≈ 0.484 µM)
MIC (Bacillus cereus [3]): 0.19 µg/mL (≈ 0.484 µM)
MIC (Staphylococcus aureus [4]): 0.19 µg/mL (≈ 0.484 µM)
SMILES: C[C@@H]1CN(c2c(F)c(N)c3c(=O)c(C(=O)O)cn(C4CC4)c3c2F)C[C@H](C)N1 [SPARFLOXACIN]
MBC (Bacillus cereus [5]): 3.1 µg/mL (≈ 7.9 µM)
MBC (Staphylococcus aureus [6]): 0.39 µg/mL (≈ 0.994 µM)
MBC (Escherichia coli [7]): 3.1 µg/mL (≈ 7.9 µM)
MBC (Pseudomonas aeruginosa [8]): 3.1 µg/mL (≈ 7.9 µM)
hemolysis at 1 h (in vitro; [10]): ≤ 1%
